Experimental data as given in PubChem BioAssay (NCI).
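Values below derive from 48-hour exposures of cells grown in 96-well plates, with endpoints linearly interpolated between the two concentrations bracketing the appropriate inhibition level. TGI marks complete inhibition of growth.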

Tests used:
Experiment in all cases: NCI-60 cell line screen, 48 h
[1] = test system: 786-0 renal
[2] = test system: A549 NSCLC
[3] = test system: CAKI-1 renal
[4] = test system: CCRF-CEM leukemia
[5] = test system: COLO 205 colon
[6] = test system: DU-145 prostate
[7] = test system: EKVX NSCLC
[8] = test system: HCC-2998 colon
[9] = test system: HCT-15 colon
[10] = test system: HL-60(TB) leukemia
[11] = test system: HOP-62 NSCLC
[12] = test system: HT29 colon
[13] = test system: IGROV1 ovarian
[14] = test system: K-562 leukemia
[15] = test system: KM12 colon
[16] = test system: LOX IMVI melanoma
[17] = test system: M14 melanoma
[18] = test system: MALME-3M melanoma
[19] = test system: MCF7 breast
[20] = test system: MDA-MB-231 breast
[21] = test system: MDA-N
[22] = test system: MOLT-4 leukemia
[23] = test system: NCI-H23 lung
[24] = test system: OVCAR-8 ovarian
[25] = test system: PC-3 prostate
[26] = test system: RPMI-8226 leukemia
[27] = test system: RXF 393 renal
[28] = test system: SF-268 CNS
[29] = test system: SF-295 CNS
[30] = test system: SK-MEL-28 melanoma
[31] = test system: SK-MEL-5 melanoma
[32] = test system: SK-OV-3 ovarian
[33] = test system: SN12C renal
[34] = test system: SNB-75 CNS
[35] = test system: SR leukemia
[36] = test system: SW-620 colon
[37] = test system: T-47D breast
[38] = test system: TK-10 renal
[39] = test system: UACC-257 melanoma
[40] = test system: UACC-62 melanoma
[41] = test system: A498 renal
[42] = test system: ACHN renal
[43] = test system: HCT-116 colon
[44] = test system: HOP-92 NSCLC
[45] = test system: HS 578T breast
[46] = test system: MDA-MB-435
[47] = test system: NCI-H226 lung
[48] = test system: NCI-H460 lung
[49] = test system: NCI/ADR-RES ovarian
[50] = test system: OVCAR-3 ovarian
[51] = test system: OVCAR-4 ovarian
[52] = test system: OVCAR-5 ovarian
[53] = test system: SF-539 CNS
[54] = test system: SK-MEL-2 melanoma
[55] = test system: SNB-19 CNS
[56] = test system: NCI-H522 lung
[57] = test system: U251 CNS
[58] = test system: UO-31 renal

Structure (SMILES): C=CCc1c(O)c2nsnc2c2nsnc12
- TGI [1]: > 10 µM
- TGI [2]: > 10 µM
- TGI [3]: > 10 µM
- TGI [4]: > 10 µM
- TGI [5]: > 10 µM
- TGI [6]: > 10 µM
- TGI [7]: > 10 µM
- TGI [8]: > 10 µM
- TGI [9]: > 10 µM
- TGI [10]: > 10 µM
- TGI [11]: > 10 µM
- TGI [12]: > 10 µM
- TGI [13]: > 10 µM
- TGI [14]: > 10 µM
- TGI [15]: > 10 µM
- TGI [16]: > 10 µM
- TGI [17]: > 10 µM
- TGI [18]: > 10 µM
- TGI [19]: > 10 µM
- TGI [20]: > 10 µM
- TGI [21]: > 10 µM
- TGI [22]: > 10 µM
- TGI [23]: > 10 µM
- TGI [24]: > 10 µM
- TGI [25]: > 10 µM
- TGI [26]: > 10 µM
- TGI [27]: > 10 µM
- TGI [28]: > 10 µM
- TGI [29]: > 10 µM
- TGI [30]: > 10 µM
- TGI [31]: > 10 µM
- TGI [32]: > 10 µM
- TGI [33]: > 10 µM
- TGI [34]: > 10 µM
- TGI [35]: > 10 µM
- TGI [36]: > 10 µM
- TGI [37]: > 10 µM
- TGI [38]: > 10 µM
- TGI [39]: > 10 µM
- TGI [40]: > 10 µM

Structure (SMILES): O=C1NN(Cc2ccccc2)C(=O)N2CCC[C@@H]12
- TGI [1]: > 100 µM
- TGI [41]: > 100 µM
- TGI [2]: > 100 µM
- TGI [42]: > 100 µM
- TGI [3]: > 100 µM
- TGI [4]: > 100 µM
- TGI [5]: > 100 µM
- TGI [6]: > 100 µM
- TGI [7]: > 100 µM
- TGI [8]: > 100 µM
- TGI [43]: > 100 µM
- TGI [9]: > 100 µM
- TGI [10]: > 100 µM
- TGI [11]: > 100 µM
- TGI [44]: > 100 µM
- TGI [45]: > 100 µM
- TGI [12]: > 100 µM
- TGI [13]: > 100 µM
- TGI [15]: > 100 µM
- TGI [16]: > 100 µM
- TGI [17]: > 100 µM
- TGI [18]: > 100 µM
- TGI [19]: > 100 µM
- TGI [20]: > 100 µM
- TGI [46]: > 100 µM
- TGI [21]: > 100 µM
- TGI [22]: > 100 µM
- TGI [47]: > 100 µM
- TGI [23]: > 100 µM
- TGI [48]: > 100 µM
- TGI [49]: > 100 µM
- TGI [50]: > 100 µM
- TGI [51]: > 100 µM
- TGI [52]: > 100 µM
- TGI [24]: > 100 µM
- TGI [25]: > 100 µM
- TGI [27]: > 100 µM
- TGI [28]: > 100 µM
- TGI [29]: > 100 µM
- TGI [53]: > 100 µM
- TGI [54]: > 100 µM
- TGI [30]: > 100 µM
- TGI [31]: > 100 µM
- TGI [32]: > 100 µM
- TGI [33]: > 100 µM
- TGI [55]: > 100 µM
- TGI [36]: > 100 µM
- TGI [37]: > 100 µM
- TGI [38]: > 100 µM
- TGI [39]: > 100 µM
- TGI [40]: > 100 µM

Structure (SMILES): CC(=O)OCC1OC(n2c3c(c(-c4ccc(Cl)cc4)c(C#N)c2=S)CCCC3)C(OC(C)=O)C(OC(C)=O)C1OC(C)=O (stereo unspecified)
- TGI [1]: > 100 µM
- TGI [41]: 79.3 µM
- TGI [2]: > 100 µM
- TGI [42]: > 100 µM
- TGI [4]: > 100 µM
- TGI [5]: > 100 µM
- TGI [6]: > 100 µM
- TGI [8]: > 100 µM
- TGI [43]: > 100 µM
- TGI [9]: > 100 µM
- TGI [10]: > 100 µM
- TGI [11]: > 100 µM
- TGI [44]: 40.4 µM
- TGI [12]: > 100 µM
- TGI [13]: > 100 µM
- TGI [14]: > 100 µM
- TGI [15]: > 100 µM
- TGI [16]: > 100 µM
- TGI [17]: > 100 µM
- TGI [18]: > 100 µM
- TGI [19]: > 100 µM
- TGI [20]: > 100 µM
- TGI [46]: > 100 µM
- TGI [21]: > 100 µM
- TGI [22]: > 100 µM
- TGI [47]: > 100 µM
- TGI [23]: > 100 µM
- TGI [48]: > 100 µM
- TGI [56]: > 100 µM
- TGI [49]: > 100 µM
- TGI [50]: > 100 µM
- TGI [51]: > 100 µM
- TGI [52]: > 100 µM
- TGI [24]: > 100 µM
- TGI [25]: 69.1 µM
- TGI [27]: 84.4 µM
- TGI [28]: > 100 µM
- TGI [29]: > 100 µM
- TGI [53]: > 100 µM
- TGI [54]: 63.3 µM
- TGI [30]: 94.6 µM
- TGI [31]: 58.6 µM
- TGI [32]: > 100 µM
- TGI [33]: > 100 µM
- TGI [55]: > 100 µM
- TGI [34]: 79.6 µM
- TGI [35]: > 100 µM
- TGI [37]: > 100 µM
- TGI [38]: > 100 µM
- TGI [57]: > 100 µM
- TGI [39]: > 100 µM
- TGI [40]: 75.1 µM
- TGI [58]: > 100 µM

Structure (SMILES): Cc1c(CCCl)c(N=P(c2ccccc2)(c2ccccc2)c2ccccc2)n2c(nc3ccccc32)c1C#N
- TGI [1]: > 10 µM
- TGI [2]: > 10 µM
- TGI [3]: > 10 µM
- TGI [4]: > 10 µM
- TGI [5]: > 10 µM
- TGI [6]: > 10 µM
- TGI [7]: > 10 µM
- TGI [8]: > 10 µM
- TGI [9]: > 10 µM
- TGI [11]: > 10 µM
- TGI [12]: > 10 µM
- TGI [13]: > 10 µM
- TGI [14]: > 10 µM
- TGI [15]: > 10 µM
- TGI [16]: > 10 µM
- TGI [17]: > 10 µM
- TGI [18]: > 10 µM
- TGI [19]: > 10 µM
- TGI [20]: > 10 µM
- TGI [21]: > 10 µM
- TGI [22]: > 10 µM
- TGI [23]: > 10 µM
- TGI [24]: > 10 µM
- TGI [25]: > 10 µM
- TGI [26]: > 10 µM
- TGI [27]: > 10 µM
- TGI [28]: > 10 µM
- TGI [29]: > 10 µM
- TGI [30]: > 10 µM
- TGI [31]: > 10 µM
- TGI [32]: > 10 µM
- TGI [33]: > 10 µM
- TGI [34]: > 10 µM
- TGI [35]: > 10 µM
- TGI [36]: > 10 µM
- TGI [37]: > 10 µM
- TGI [38]: > 10 µM
- TGI [39]: > 10 µM
- TGI [40]: > 10 µM

Structure (SMILES): C=CC1CN(C(=O)OCC)N(C(=O)OCC)C1CCc1ccccc1 (stereo unspecified)
- TGI [1]: > 100 µM
- TGI [2]: > 100 µM
- TGI [42]: > 100 µM
- TGI [3]: > 100 µM
- TGI [4]: > 100 µM
- TGI [5]: > 100 µM
- TGI [6]: > 100 µM
- TGI [7]: > 100 µM
- TGI [8]: > 100 µM
- TGI [43]: > 100 µM
- TGI [9]: > 100 µM
- TGI [10]: > 100 µM
- TGI [11]: > 100 µM
- TGI [44]: > 100 µM
- TGI [45]: > 100 µM
- TGI [12]: > 100 µM
- TGI [13]: > 100 µM
- TGI [14]: > 100 µM
- TGI [15]: > 100 µM
- TGI [16]: > 100 µM
- TGI [17]: > 100 µM
- TGI [18]: > 100 µM
- TGI [19]: > 100 µM
- TGI [20]: > 100 µM
- TGI [46]: > 100 µM
- TGI [21]: > 100 µM
- TGI [22]: > 100 µM
- TGI [47]: > 100 µM
- TGI [23]: > 100 µM
- TGI [48]: > 100 µM
- TGI [56]: > 100 µM
- TGI [49]: > 100 µM
- TGI [51]: > 100 µM
- TGI [52]: > 100 µM
- TGI [24]: > 100 µM
- TGI [25]: > 100 µM
- TGI [26]: > 100 µM
- TGI [28]: > 100 µM
- TGI [29]: > 100 µM
- TGI [54]: > 100 µM
- TGI [30]: > 100 µM
- TGI [31]: > 100 µM
- TGI [32]: > 100 µM
- TGI [33]: > 100 µM
- TGI [55]: > 100 µM
- TGI [34]: > 100 µM
- TGI [35]: > 100 µM
- TGI [37]: > 100 µM
- TGI [38]: > 100 µM
- TGI [57]: > 100 µM
- TGI [39]: > 100 µM
- TGI [40]: > 100 µM
- TGI [58]: > 100 µM
